Laboratory results taken from patent US9695155B2, “Herbicidal substituted pyrimidinyloxy benzene compounds” (E. I. DU PONT DE NEMOURS AND COMPANY, priority 2013, dated 2017).

How the values were obtained:
[1] = tested on: pigweed; assay: Test C postemergence; format: in vivo, Amaranthus retroflexus
Method in brief: (§1)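 Sown in loam/sand → sprayed pre-emergence; or grown to 1–4 leaves in peat mix → sprayed post-emergence. Same solvent/surfactant formulation both ways. Greenhouse 13–15 d. Score 0–100 visual.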

[2] = tested on: johnsongrass; assay: Test C postemergence; format: in vivo, Sorghum halepense
Method in brief: as §1

[3] = tested on: barnyardgrass; assay: Test B flooded paddy test; format: in vivo, Echinochloa crus-galli; details: Flood, 250 g ai/ha; 0 to 100 scale where 0 is no effect and 100 is complete control
Method in brief: (§2)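 Greenhouse flooded-pot test: compounds dosed into 3 cm standing water over 2-leaf plants, flood held constant. Rated visually after 13–15 days on 0–100 (complete control = 100); a dash marks no test result.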

[4] = tested on: morningglory; assay: Test A preemergence; format: in vivo, Ipomoea spp.
Method in brief: (§3)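 Injury scores run from 0, no effect, to 100, complete control, judged by eye against untreated plants roughly 10 days after treatment. Chemicals carried a surfactant in a non-phytotoxic solvent and went onto loam–sand soil preemergence or onto one- to two-leaf seedlings postemergence.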

[5] = tested on: corn; assay: Test A preemergence; format: in vivo, Zea mays; details: 0 to 100 scale where 0 is no effect and 100 is complete control
Method in brief: as §3

[6] = tested on: wild oat; assay: Test C postemergence; format: in vivo, Avena fatua
Method in brief: as §1

[7] = tested on: waterhemp; assay: Test C postemergence; format: in vivo, Amaranthus rudis
Method in brief: as §1

[8] = tested on: barnyardgrass; assay: Test A postemergence; format: in vivo, Echinochloa crus-galli; details: 0 to 100 scale where 0 is no effect and 100 is complete control
Method in brief: as §3

[9] = tested on: barnyardgrass; assay: Test C postemergence; format: in vivo, Echinochloa crus-galli
Method in brief: as §1

[10] = tested on: giant foxtail; assay: Test C preemergence; format: in vivo, Setaria faberii; details: for Foxtail, Giant plant response rating: preemergence
Method in brief: as §1

[11] = tested on: corn; assay: Test C preemergence; format: in vivo, Zea mays; details: for Corn plant response rating: preemergence
Method in brief: as §1

[12] = tested on: sedge, umbrella; assay: Test B flooded paddy test; format: in vivo, Cyperus difformis; details: Flood, 250 g ai/ha; 0 to 100 scale where 0 is no effect and 100 is complete control
Method in brief: as §2

[13] = tested on: Italian ryegrass; assay: Test C postemergence; format: in vivo, Lolium multiflorum
Method in brief: as §1

[14] = tested on: yellow nutsedge; assay: Test C postemergence; format: in vivo, Cyperus esculentus
Method in brief: as §1

[15] = tested on: velvetleaf; assay: Test C postemergence; format: in vivo, Abutilon theophrasti
Method in brief: as §1

[16] = 16 g ai/ha, postemergence, 0 is no effect, 100 is complete control
[17] = 31 g ai/ha, postemergence, visual rating, scale 0 to 100 (0 no effect, 100 complete control), 13 to 15 days
[18] = 125 g ai/ha, postemergence, visual rating, scale 0 to 100 (0 no effect, 100 complete control)
[19] = Postemergence, 62 g ai/ha, scale 0 to 100 (0 no effect, 100 complete control)
[20] = 16 g ai/ha, scale 0 to 100 (0 no effect, 100 complete control)
[21] = 62 g ai/ha, scale 0 (no effect) to 100 (complete control)
[22] = 125 g ai/ha, scale 0 (no effect) to 100 (complete control)
[23] = Preemergence, 31 g ai/ha, scale 0 to 100, 0 no effect, 100 complete control

For `FC(F)(F)c1cnn(-c2c(Cl)cccc2Oc2ncc(Cl)cn2)c1` [Compound 167], the “Plant response rating (0 to 100), Pigweed” value [1, 16] was 80, the “Pigweed plant response rating” value [1, 17] was 90 and the “Plant response rating, Pigweed” value [1, 18] was 98. The “Plant response rating, Pigweed” value [1, 19] was 95, the “Plant response rating (0 to 100), Johnsongrass” value [2, 16] was 5 and the “Johnsongrass plant response rating” value [2, 17] was 15. For the same molecule, the “Plant response rating, Johnsongrass” value [2, 18] was 25, the “Plant response rating, Johnsongrass” value [2, 19] was 15 and the “Plant response rating, Barnyardgrass” value [3] was 35. The “Morningglory plant response rating (0 to 100 scale)” value ([4]; 125 g ai/ha) was 90, the “Morningglory plant response rating” value ([4]; 500 g ai/ha, 0 to 100 scale where 0 is no effect and 100 is complete control) was 100 and the “Plant response rating, Corn” value ([5]; 125 g ai/ha) was 10. The “Corn plant response rating” value ([5]; 500 g ai/ha) was 40, the “Plant response rating (0 to 100), Oat, Wild” value [6, 16] was 5 and the “Oat, Wild plant response rating” value [6, 17] was 25. The “Plant response rating, Oat, Wild” value [6, 18] was 35, the “Plant response rating, Oat, Wild” value [6, 19] was 35 and the “Plant response rating (0 to 100), Waterhemp” value [7, 16] was 65. The “Waterhemp plant response rating” value [7, 17] was 75, the “Plant response rating, Waterhemp” value [7, 18] was 98 and the “Plant response rating, Waterhemp” value [7, 19] was 85. The “Barnyardgrass plant response rating” value ([8]; 125 g ai/ha) was 70, the “Plant response rating, Barnyardgrass” value ([8]; 500 g ai/ha) was 100 and the “Plant response rating (0 to 100), Barnyardgrass” value [9, 16] was 5. For the same molecule, the “Barnyardgrass plant response rating” value [9, 17] was 5, the “Plant response rating, Barnyardgrass” value [9, 18] was 10 and the “Plant response rating, Barnyardgrass” value [9, 19] was 10. The “Foxtail, Giant plant response rating” value [10, 20] was 35, the “Foxtail, Giant plant response rating” value [10, 21] was 100 and the “Foxtail, Giant plant response rating” value [10, 22] was 100. The “Plant response rating, Foxtail, Giant” value [10, 23] was 95, the “Corn plant response rating” value [11, 20] was 0 and the “Corn plant response rating” value [11, 21] was 25. The “Corn plant response rating” value [11, 22] was 60, the “Plant response rating, Corn” value [11, 23] was 5 and the “Plant response rating, Sedge, Umbrella” value [12] was 98. The “Plant response rating (0 to 100), Ryegrass, Italian” value [13, 16] was 0, the “Ryegrass, Italian plant response rating” value [13, 17] was 10 and the “Plant response rating, Ryegrass, Italian” value [13, 18] was 30. The “Plant response rating, Ryegrass, Italian” value [13, 19] was 5, the “Plant response rating (0 to 100), Nutsedge, Yellow” value [14, 16] was 0 and the “Nutsedge, Yellow plant response rating” value [14, 17] was 0. For the same molecule, the “Plant response rating, Nutsedge, Yellow” value [14, 18] was 20, the “Plant response rating, Nutsedge, Yellow” value [14, 19] was 5 and the “Plant response rating (0 to 100), Velvetleaf” value [15, 16] was 35. The “Velvetleaf plant response rating” value [15, 17] was 40, the “Plant response rating, Velvetleaf” value [15, 18] was 70 and the “Plant response rating, Velvetleaf” value [15, 19] was 40.
